This note sets out measurements from ChEMBL document CHEMBL1132844, “Assessment of substitution in the second pharmacophore of Dmt-Tic analogues” (Bioorg Med Chem Lett, 2000).

Usually EC50 stands for the concentration at which the effect is half-maximal. Lower therefore signals greater potency.

Experiment [1] has as its target Delta-type opioid receptor (Mus musculus) (UniProt P32300).
Experiment [2] concerns the target T1, Delta-type opioid receptor (Mus musculus, UniProt P32300). In words: (§1) Negative logarithm of the molar concentration of delta receptor was determined in mouse vas deferens. Conditions: read-out: pA2 (converted).
Experiment [3] deals with T2, Mu-type opioid receptor (Cavia porcellus, UniProt P97266). As to the kind of experiment: Negative logarithm of the molar concentration for agonist activity at mu receptor was determined in guinea pig ileum. It is filed as functional, tissue-based.
Experiment [4] deals with Delta-type opioid receptor (Mus musculus) (UniProt P32300). As to the kind of experiment: Negative logarithm of the molar concentration of delta receptor was determined in mouse vas deferens; i represents inactivity up to 1 mM. It is filed as functional.
Experiment [5] deals with T1, Delta-type opioid receptor. The description is as §1. It is filed as functional. The note with it: read-out: pA2 (converted).
For experiment [6], the target named is T2, Mu-type opioid receptor. As to the kind of experiment: Negative logarithm of the molar concentration for agonist activity at Opioid receptor mu 1 was determined in guinea pig ileum. In kind it is functional, tissue-based.

Calls of active or inactive are those of the source. The calls are words filed in the database; no cut-off is given here. Square brackets hold non-standard residues; d marks the D form. Peptide text beside a SMILES is read from it. ξ: configuration not given here. Dmt = Cc1cc(O)cc(C)c1C[C@H](N)C(=O)O; ξTic = O=C(O)C1Cc2ccccc2CN1

T2 sequence (P97266 whole entry): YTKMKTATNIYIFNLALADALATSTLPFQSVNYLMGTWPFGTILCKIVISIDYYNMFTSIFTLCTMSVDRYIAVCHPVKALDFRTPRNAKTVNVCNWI
Sequence of Delta-type opioid receptor (Mus musculus) (P32300 whole entry): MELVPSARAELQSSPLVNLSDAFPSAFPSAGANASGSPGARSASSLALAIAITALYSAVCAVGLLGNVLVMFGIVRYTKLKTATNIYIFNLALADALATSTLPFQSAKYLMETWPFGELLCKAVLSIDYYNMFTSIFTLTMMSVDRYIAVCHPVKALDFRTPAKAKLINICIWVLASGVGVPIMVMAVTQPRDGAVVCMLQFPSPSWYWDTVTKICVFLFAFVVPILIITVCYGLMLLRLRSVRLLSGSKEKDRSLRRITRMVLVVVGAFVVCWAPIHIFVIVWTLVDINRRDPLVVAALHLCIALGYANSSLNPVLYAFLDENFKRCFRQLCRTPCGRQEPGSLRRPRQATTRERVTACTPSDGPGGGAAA
T1 sequence (P32300 whole entry): as above

`Cc1cc(O)cc(C)c1C[C@H](N)C(=O)N1Cc2ccccc2CC1COCc1ccccc1` (some centres undefined): the “Log EC50” value in experiment [1] was “inactive”. In experiment [2], the Kb was 13.5 nM. The compound also gave an EC50 in experiment [3] of 525 nM.

Turning to `Cc1cc(O)cc(C)c1C[C@H](N)C(=O)N1Cc2ccccc2CC1C(N)=O` (some centres undefined) (H-[Dmt]-[ξTic]-NH2), in experiment [4], the “Log EC50” value was “inactive”. The Kb in experiment [5] is 63.1 nM. Besides, the EC50 in experiment [6] was more than 10000 nM.

With `C[C@@H](NC(=O)[C@@H](N)Cc1ccc(O)cc1)C(=O)N[C@@H](Cc1ccccc1)C(=O)NCC(=O)N[C@@H](Cc1ccc(O)cc1)C(=O)N1CCC[C@H]1C(=O)N[C@@H](CO)C(N)=O` [DERMORPHIN], the EC50 in experiment [3] is 1.58 nM.

With `Cc1cc(O)cc(C)c1C[C@H](N)C(=O)N1CCc2ccccc2C1`, the “Log EC50” value in experiment [4] is “inactive”. For the same compound, the Kb in experiment [2] was 38.9 nM. This compound also showed an EC50 in experiment [3] of 490 nM.

In the case of `Cc1cc(O)cc(C)c1C[C@H](N)C(=O)N1CCc2ccc(F)cc2C1`, the “Log EC50” value in experiment [1] was “inactive”. For the same compound, the Kb in experiment [2] is 617 nM. In experiment [3], the 50% effective concentration (EC50) was 631 nM.

With `Cc1cc(O)cc(C)c1C[C@H](N)C(=O)N1Cc2ccccc2CC1CO` (some centres undefined), the “Log EC50” value in experiment [4] was “inactive”. The Kb in experiment [5] is 100 nM. This compound also showed an EC50 in experiment [6] of more than 10000 nM.

Take `Cc1cc(O)cc(C)c1C[C@H](N)C(=O)N1Cc2ccc(F)cc2CC1C(=O)O` (some centres undefined): the “Log EC50” value in experiment [1] was “inactive”. Besides, the Kb in experiment [2] was 35.5 nM. This compound also showed an EC50 in experiment [3] of 813 nM.
